Measurements from PubChem BioAssay AID2060512 (Molecular Pharmacology Branch, DTP, NCI, 2025).
One block for each compound: values may come before it.

System: 186277-243-T-J2-PDC complex spheroid viability
Experiment: Anticancer human tumor 186277-243-T-J2-PDC patient-derived colon adenocarcinoma cell line growth inhibition [GQUAD]
Details: for IC50: curve of first compound; for viability, T/C: stronger effect = lower value
Text: DNA G-quadruplex Stabilizer Agents in Combinations in Complex Spheroids
A high-throughput screen of multi-cell type tumor spheroids was designed to identify active combinations of DNA G-quadruplex stabilizer agents and targeted small molecules. Complex spheroids include a stromal component modeled by human endothelial cells (HUVEC) and fibroblasts modeled by human mesenchymal stem cells (MSCs). The concentration ranges selected for each drug and investigational agent were based upon clinically achievable concentrations if the clinical Cmax of the agent was known.
Compounds. The drugs and investigational agents: pidnarulex (CX-5461; NSC782164), APTO-253 (NSC789042), BRACO-19 (NSC847499), peposertib (NSC802822), ceralasertib (NSC780249), elimusertib (NSC800525), camonsertib (NSC841442), AZD-1390 (NSC803789), olaparib (NSC753686), talazoparib (NSC767125), ART-558 (NSC835418), sotorasib (NSC818433), MRTX-1133 (NSC836407), SN-38 (NSC673596), topotecan (NSC609699), etoposide (NSC141540), doxorubicin (NSC123127), gemcitabine (NSC613327), 5-fluorouracil (NSC19893), paclitaxel (NSC125973), vemurafenib (NSC761431), panobinostat (NSC761190), R-306465 (JNJ-16241199; NSC773264), adavosertib (NSC754352), TP-3654 (NSC805149), carboplatin (NSC241240), KSQ-4279 (NSC840948), and staurosporine (NSC755774) were obtained from the National Cancer Institute (NCI) Developmental Therapeutics Program Chemical Repository (34). The FDA-approved anticancer drug set is available from the NCI Developmental Therapeutics Program. […] The stock solutions were prepared in dimethyl sulfoxide (DMSO, Sigma-Aldrich, St. Louis, MO, cat. D2650) at 800-fold the tested concentration and stored at -70 degrees C prior to their use. All drugs and investigational agents were tested over a range starting from a high concentration at or near the clinical Cmax and decreasing in half-log increments. If the clinical Cmax for an agent had not been determined, the highest concentration tested was 10 microM.
2.3 Cell Culture. All cells were maintained in an incubator at 37 degrees C and 5% CO2 with 95% humidity. The PDC lines were cultured according to standard operating procedures established by the NCI PDMR. All PDCs were thawed and cultured in Matrigel-coated flasks prepared with a working solution of 1X Ham's F-12 nutrient mix, without supplementation (Invitrogen, cat. 11765054), 100 U/mL penicillin-streptomycin (Invitrogen, cat. 15140122), and 2.5% Matrigel (Corning Inc., cat. 354248) for the first three passages. The 857933-349-R-J2-PDC line was cultured in 6C/Colon 1B media, which includes advanced DMEM/F-12 (Thermo Fisher Scientific, cat. 12634028), 10 mM HEPES (Thermo Fisher Scientific, cat. 15630080), 1X GlutaMAX supplement (Thermo Fisher Scientific, cat. 35050061), 0.1 mg/mL primocin (InvivoGen, cat. ant-pm-2), 10% defined fetal bovine serum, heat inactivated (HyClone Laboratories Inc., cat. SH30070.03HI), 50% L-WRN conditioned media (ATCC, cat. CRL-3276), 1.25 mM N-Acetyl-L-cysteine (Sigma-Aldrich, cat. A9165), 10 mM nicotinamide (Sigma-Aldrich, cat. N0636), 1X B-27 supplement (Thermo Fisher Scientific, cat. 17504044), 1X N-2 supplement (Thermo Fisher Scientific, cat. 17502048), 10 microM Y-27632 dihydrochloride (Tocris Bioscience, cat. 1254), and 50 ng/mL human EGF recombinant protein (Thermo Fisher Scientific, cat. PHG0311). The 485176-168-R4-J1-PDC line was cultured in Panc media, which includes all 6C/Colon 1B media components plus 100 ng/mL human FGF-10 (Thermo Fisher Scientific, cat. 100-26), 500 nM SB-431542 (Selleckchem, cat. S1067), and gastrin (Tocris, cat. 3006).
[…]

[1] = second compound 0.0316 µM, first compound 0.0316 µM
[2] = second compound 0.0316 µM, first compound 0.1 µM
[3] = second compound 0.0316 µM, first compound 0.316 µM
[4] = second compound 0.0316 µM, first compound 1 µM
[5] = second compound 0.0316 µM, first compound 3.16 µM
[6] = second compound 0.0316 µM, first compound 10 µM
[7] = second compound 0.1 µM, first compound 0.0316 µM
[8] = second compound 0.1 µM, first compound 0.1 µM
[9] = second compound 0.1 µM, first compound 0.316 µM
[10] = second compound 0.1 µM, first compound 1 µM
[11] = second compound 0.1 µM, first compound 3.16 µM
[12] = second compound 0.1 µM, first compound 10 µM
[13] = second compound 0.316 µM, first compound 0.0316 µM
[14] = second compound 0.316 µM, first compound 0.1 µM
[15] = second compound 0.316 µM, first compound 0.316 µM
[16] = second compound 0.316 µM, first compound 1 µM
[17] = second compound 0.316 µM, first compound 3.16 µM
[18] = second compound 0.316 µM, first compound 10 µM
[19] = second compound 1 µM, first compound 0.0316 µM
[20] = second compound 1 µM, first compound 0.1 µM
[21] = second compound 1 µM, first compound 0.316 µM
[22] = second compound 1 µM, first compound 1 µM
[23] = second compound 1 µM, first compound 3.16 µM
[24] = second compound 1 µM, first compound 10 µM
[25] = second compound 3.16 µM, first compound 0.0316 µM
[26] = second compound 3.16 µM, first compound 0.1 µM
[27] = second compound 3.16 µM, first compound 0.316 µM
[28] = second compound 3.16 µM, first compound 1 µM
[29] = second compound 3.16 µM, first compound 3.16 µM
[30] = second compound 3.16 µM, first compound 10 µM
[31] = second compound 10 µM, first compound 0.0316 µM
[32] = second compound 10 µM, first compound 0.1 µM
[33] = second compound 10 µM, first compound 0.316 µM
[34] = second compound 10 µM, first compound 1 µM
[35] = second compound 10 µM, first compound 3.16 µM
[36] = second compound 10 µM, first compound 10 µM
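Also: spheroids exposed to drugs for 7 days.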
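For viability, T/C in this document: 100% = DMSO vehicle control viability.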

Compound: CC1COCCN1c1cc(-c2ccnn2C)c2ccnc(-c3ccn[nH]3)c2n1 (centres undefined) + Cc1[nH]c2ccc(F)cc2c1-c1nc2c3cccnc3c3ncccc3c2[nH]1
- IC50 (second compound 0.0316 µM): 50.5 nM
- IC50 (second compound 0.1 µM): 48.5 nM
- IC50 (second compound 0.316 µM): 50.6 nM
- IC50 (second compound 1 µM): < 31.6 nM
- IC50 (second compound 3.16 µM): 40.4 nM
- IC50 (second compound 10 µM): 33.6 nM
- viability, T/C [1]: 74.1%
- viability, T/C [2]: 15%
- viability, T/C [3]: 7.54%
- viability, T/C [4]: 5%
- viability, T/C [5]: 5.42%
- viability, T/C [6]: 5.79%
- viability, T/C [7]: 70.8%
- viability, T/C [8]: 15%
- viability, T/C [9]: 8.57%
- viability, T/C [10]: 5.57%
- viability, T/C [11]: 6.67%
- viability, T/C [12]: 6.18%
- viability, T/C [13]: 72.2%
- viability, T/C [14]: 17.8%
- viability, T/C [15]: 7.48%
- viability, T/C [16]: 5.56%
- viability, T/C [17]: 6.42%
- viability, T/C [18]: 6.89%
- viability, T/C [19]: 49%
- viability, T/C [20]: 13.3%
- viability, T/C [21]: 6.83%
- viability, T/C [22]: 5.52%
- viability, T/C [23]: 7.58%
- viability, T/C [24]: 7.98%
- viability, T/C [25]: 59.7%
- viability, T/C [26]: 13.9%
- viability, T/C [27]: 7.5%
- viability, T/C [28]: 6.04%
- viability, T/C [29]: 7.48%
- viability, T/C [30]: 7.66%
- viability, T/C [31]: 52.1%
- viability, T/C [32]: 11.5%
- viability, T/C [33]: 8.02%
- viability, T/C [34]: 5.7%
- viability, T/C [35]: 5.81%
- viability, T/C [36]: 6.85%

- IC50 (second compound 0.0316 µM): > 10000 nM
- IC50 (second compound 0.1 µM): > 10000 nM
- IC50 (second compound 0.316 µM): > 10000 nM
- IC50 (second compound 1 µM): < 31.6 nM
- IC50 (second compound 3.16 µM): < 31.6 nM
- IC50 (second compound 10 µM): < 31.6 nM
Compound: COc1ncnc(C2CC2)c1-c1ncc2cnn(Cc3ccc(-c4nc(C(F)(F)F)cn4C(C)C)cc3)c2n1 + Cc1cnc(CNC(=O)c2c(=O)c3ccc(N4CCCN(C)CC4)nc3n3c2sc2ccccc23)cn1
- viability, T/C [1]: 90%
- viability, T/C [2]: 73.9%
- viability, T/C [3]: 86.6%
- viability, T/C [4]: 67%
- viability, T/C [5]: 79.1%
- viability, T/C [6]: 76.1%
- viability, T/C [7]: 67.3%
- viability, T/C [8]: 55.1%
- viability, T/C [9]: 62.3%
- viability, T/C [10]: 51.5%
- viability, T/C [11]: 69%
- viability, T/C [12]: 62.1%
- viability, T/C [13]: 55.5%
- viability, T/C [14]: 57.2%
- viability, T/C [15]: 61.6%
- viability, T/C [16]: 53.1%
- viability, T/C [17]: 62.6%
- viability, T/C [18]: 48.5%
- viability, T/C [19]: 42.4%
- viability, T/C [20]: 39.3%
- viability, T/C [21]: 38.2%
- viability, T/C [22]: 36.1%
- viability, T/C [23]: 48.1%
- viability, T/C [24]: 33.2%
- viability, T/C [25]: 27.5%
- viability, T/C [26]: 39.1%
- viability, T/C [27]: 43.6%
- viability, T/C [28]: 42.6%
- viability, T/C [29]: 42.5%
- viability, T/C [30]: 37.4%
- viability, T/C [31]: 29.4%
- viability, T/C [32]: 41.9%
- viability, T/C [33]: 34.3%
- viability, T/C [34]: 32.9%
- viability, T/C [35]: 37.3%
- viability, T/C [36]: 32.8%
